{
  "source": "paper PMC8290231",
  "about": "(Cancer Medicine, 2021)",
  "format_in_all_cases": "cell-based",
  "key": {"Ba/F3‐FGFR1‐V561F [1]": {"system": "Ba/F3‐FGFR1‐V561F", "test": "Cell cycle analysis by flow cytometry (propidium iodide)", "protocol": "About 6 × 10^5 cells were re‐suspended in 150 μl of BD Cytofix/Cytoperm buffer solution I for 10 min at room temperature. The cell suspensions were added with BD Cytofix/Cytoperm buffer solution II and incubated with another 10 min at room temperature, and then incubated with 200 μl of propidium iodide buffer (0.1 mg/ml) in the dark for 10 min at 4℃. Assays were performed with a Guava easyCyte flow cytometer (Merck, USA)."}, "Ba/F3‐FGFR1‐V561F [2]": {"system": "Ba/F3‐FGFR1‐V561F", "test": "Apoptosis assay by flow cytometry (Annexin V / 7-AAD)", "protocol": "After incubation, cells were collected and washed twice with pre‐cold PBS. About 6 × 10^5 cells were resuspended in 100 μl of 1× BD binding buffer solution (#556454, BD), and then stained with 7‐ADD (#559925, BD) and Annexin V‐PE (#556422, BD) in the dark for 15 min. Finally, 400 μl of 1×BD binding buffer solution were added to stop dyeing. The cells were then measured on a Guava easyCyte flow cytometer (Merck, USA)."}, "MDA‐MB‐453": {"system": "MDA‐MB‐453", "test": "CCK-8 cell proliferation assay", "settings": "Homo sapiens, MDA-MB-453; FGFR4‐Y367C; CCK-8, 72 h; read-out: antiproliferative IC50, MDA‐MB‐453", "protocol": "(§1) The base medium for MDA‐MB‐453 cell line is DMEM medium (CORNING, USA). All other cell lines were cultured in RPMI‐1640 medium supplemented with 10% FBS, 100 U/ml of penicillin, and […] of streptomycin in 5% CO2 at 37℃. The cells in the logarithmic growth phase were used for the experiments.\n(§2) Cells were seeded in 96‐well plate in complete medium (1000–6000 cells/well) and cultured for overnight. Then the cells were exposed to gradient concentrations (0.0005–10 μM) of compounds. Cell proliferation was analyzed by Cell Counting Kit 8 (CK04, Dojindo Laboratories, Japan) after co‐incubation for a further 72 h. IC50 values were calculated by fitting of concentration–response curves using GraphPad Prism 8.01 software. Each assay was repeated at least three times.\n(§3) The expression and activation levels of FGFR1–4 in these cells were determined via western blot experiments (Figure S1)."}, "H1581": {"system": "H1581", "test": "CCK-8 cell proliferation assay", "settings": "Homo sapiens, NCI-H1581; FGFR1 amplification; CCK-8, 72 h; read-out: antiproliferative IC50, H1581", "protocol": "as §1, §2, §3"}, "MDA‐MB‐231": {"system": "MDA‐MB‐231", "test": "CCK-8 cell proliferation assay", "settings": "CCK-8, 72 h", "protocol": "as §1, §2, §3"}, "KATOIII": {"system": "KATOIII", "test": "CCK-8 cell proliferation assay", "settings": "Homo sapiens, KATO III; FGFR2 amplification; CCK-8, 72 h; read-out: antiproliferative IC50, KATOIII", "protocol": "as §1, §2, §3"}, "NCI‐H716": {"system": "NCI‐H716", "test": "CCK-8 cell proliferation assay", "settings": "Homo sapiens, NCI-H716; FGFR2 amplification; CCK-8, 72 h; read-out: antiproliferative IC50, NCI‐H716", "protocol": "as §1, §2, §3"}, "MKN‐1": {"system": "MKN‐1", "test": "CCK-8 cell proliferation assay", "settings": "Homo sapiens, MKN-1; negative control; CCK-8, 72 h; read-out: antiproliferative IC50, MKN‐1", "protocol": "as §1, §2, §3"}, "RT112": {"system": "RT112", "test": "CCK-8 cell proliferation assay", "settings": "Homo sapiens, RT-112; FGFR3‐TACC3; CCK-8, 72 h; read-out: antiproliferative IC50, RT112", "protocol": "as §1, §2, §3"}, "SNU16": {"system": "SNU16", "test": "CCK-8 cell proliferation assay", "settings": "Homo sapiens, SNU-16; FGFR2 amplification; CCK-8, 72 h; read-out: antiproliferative IC50, SNU16", "protocol": "as §1, §2, §3"}, "Ba/F3(+IL‐3)": {"system": "Ba/F3(+IL‐3)", "test": "CCK-8 proliferation assay in parental Ba/F3 cells", "settings": "Mus musculus, read-out: IC50 (μΜ) Ba/F3(+IL‐3)", "protocol": "(§4) The Ba/F3 cell lines stably expressing FGFR1, FGFR1‐V561M, FGFR1‐V561F, FGFR1‐K656N, and FGFR1‐K656E were self‐established through electroporation pCDNA3.1‐TEL plasmids using the Amaxa Cell Line Nucleofector Kit V (Lonza, Cologne, Germany). Stable cell lines were selected by G418 (Merck, USA) and then withdrawal of IL‐3 (R&D). […] Parental Ba/F3 cells were maintained in RPMI 1640 supplemented with 10% FBS, 100 U/ml of penicillin, […] of streptomycin, and 10 ng/ml of IL‐3, while all Ba/F3 stable cell lines were cultured in the same medium without IL‐3.\nas §2\n(§5) There is, however, no commercially available FGFR1 mutant kinase to validate this. Therefore, we constructed Ba/F3 model cells stably expressing FGFR1‐WT, K656E, K656N, V561M, and V561F mutations."}, "Ba/F3‐FGFR1": {"system": "Ba/F3‐FGFR1", "test": "CCK-8 proliferation assay in Ba/F3 stable cells", "settings": "Mus musculus, read-out: IC50 (μΜ) Ba/F3‐FGFR1", "protocol": "as §4, §2, §5"}, "Ba/F3‐FGFR1‐K656N": {"system": "Ba/F3‐FGFR1‐K656N", "test": "CCK-8 proliferation assay in Ba/F3 stable cells", "settings": "Mus musculus, read-out: IC50 (μΜ) Ba/F3‐FGFR1‐K656N", "protocol": "as §4, §2, §5"}, "Ba/F3‐FGFR1‐V561M": {"system": "Ba/F3‐FGFR1‐V561M", "test": "CCK-8 proliferation assay in Ba/F3 stable cells", "settings": "Mus musculus", "protocol": "as §4, §2, §5"}, "Ba/F3‐FGFR1‐K656E": {"system": "Ba/F3‐FGFR1‐K656E", "test": "CCK-8 proliferation assay in Ba/F3 stable cells", "settings": "Mus musculus", "protocol": "as §4, §2, §5"}, "Ba/F3‐FGFR1‐V561F [3]": {"system": "Ba/F3‐FGFR1‐V561F", "test": "CCK-8 proliferation assay in Ba/F3 stable cells", "settings": "Mus musculus", "protocol": "as §4, §2, §5"}, "[4]": {"settings": "Homo sapiens, MDA-MB-231, 72 h, read-out: antiproliferative IC50, MDA‐MB‐231, negative control"}},
  "note": "Where two headings read alike, the source gives them in different places.",
  "data": [
    {"smiles": "CCN1CCN(c2ccc(Nc3cc(N(C)C(=O)Nc4c(Cl)c(OC)cc(OC)c4Cl)ncn3)cc2)CC1", "note": "[BGJ398]", "values": [
      {"measurement": "effect on cell cycle", "setting": "Ba/F3‐FGFR1‐V561F [1]; 1000 nM", "result": "weak effect"},
      {"measurement": "effect on apoptosis", "setting": "Ba/F3‐FGFR1‐V561F [2]; 1000 nM", "result": "weak effect"},
      {"measurement": "IC50", "setting": "MDA‐MB‐453", "result": "2700 ± 104", "unit": "nM"},
      {"measurement": "IC50", "setting": "H1581", "result": "19.4 ± 2.5", "unit": "nM"},
      {"measurement": "IC50", "setting": "MDA‐MB‐231; [4]", "result": "> 10000", "unit": "nM"},
      {"measurement": "IC50", "setting": "KATOIII", "result": "17.1 ± 2.4", "unit": "nM"},
      {"measurement": "IC50", "setting": "NCI‐H716", "result": "4.2 ± 0.8", "unit": "nM"},
      {"measurement": "IC50", "setting": "MKN‐1", "result": "5110 ± 481", "unit": "nM"},
      {"measurement": "IC50", "setting": "RT112", "result": "233 ± 76.7", "unit": "nM"},
      {"measurement": "IC50", "setting": "SNU16", "result": "18.6 ± 6.3", "unit": "nM"},
      {"measurement": "IC50", "setting": "Ba/F3(+IL‐3); BaF3, parental cells with IL-3, CCK-8, 72 h", "result": "5660 ± 880", "unit": "nM"},
      {"measurement": "IC50", "setting": "Ba/F3‐FGFR1; BaF3, CCK-8, 72 h", "result": "31 ± 2.9", "unit": "nM"},
      {"measurement": "IC50", "setting": "Ba/F3‐FGFR1‐K656N; BaF3, CCK-8, 72 h", "result": "82 ± 5.5", "unit": "nM"},
      {"measurement": "IC50", "setting": "Ba/F3‐FGFR1‐V561M; BaF3, CCK-8, 72 h, read-out: IC50 (μΜ) Ba/F3‐FGFR1‐V561M", "result": "4380 ± 280", "unit": "nM"},
      {"measurement": "IC50", "setting": "Ba/F3‐FGFR1‐V561M; BaF3, bound stated, read-out: IC50 Ba/F3‐FGFR1‐V561M", "result": "> 330", "unit": "nM"},
      {"measurement": "IC50", "setting": "Ba/F3‐FGFR1‐K656E; BaF3, CCK-8, 72 h, read-out: IC50 (μΜ) Ba/F3‐FGFR1‐K656E", "result": "330 ± 2.9", "unit": "nM"},
      {"measurement": "IC50", "setting": "Ba/F3‐FGFR1‐K656E; BaF3, bound stated, read-out: IC50 Ba/F3‐FGFR1‐K656E", "result": "> 330", "unit": "nM"},
      {"measurement": "IC50", "setting": "Ba/F3‐FGFR1‐V561F [3]; BaF3, CCK-8, 72 h, read-out: IC50 (μΜ) Ba/F3‐FGFR1‐V561F", "result": "4250 ± 64", "unit": "nM"},
      {"measurement": "IC50", "setting": "Ba/F3‐FGFR1‐V561F [3]; BaF3, bound stated, read-out: IC50 Ba/F3‐FGFR1‐V561F", "result": "> 330", "unit": "nM"}
    ]},
    {"smiles": "Cc1ccc(C(=O)Nc2ccc(CN3CCN(C)CC3)c(C(F)(F)F)c2)cc1C#Cc1cnc2[nH]ncc2c1", "note": "[GZD824]", "values": [
      {"measurement": "G0/G1 phase", "setting": "Ba/F3‐FGFR1‐V561F [1]; 100 nM, 24 h", "result": 71.13, "unit": "%"},
      {"measurement": "apoptosis", "setting": "Ba/F3‐FGFR1‐V561F [2]; 100 nM, 48 h", "result": 71.01, "unit": "%"},
      {"measurement": "IC50", "setting": "MDA‐MB‐453", "result": "148 ± 104", "unit": "nM"},
      {"measurement": "IC50", "setting": "H1581", "result": "10.8 ± 0.8", "unit": "nM"},
      {"measurement": "IC50", "setting": "MDA‐MB‐231; [4]", "result": "> 1000", "unit": "nM"},
      {"measurement": "IC50", "setting": "MDA‐MB‐231; read-out: antiproliferative IC50, MDA‐MB‐231, negative control", "result": "2000 ± 782", "unit": "nM"},
      {"measurement": "IC50", "setting": "KATOIII", "result": "9.8 ± 1.2", "unit": "nM"},
      {"measurement": "IC50", "setting": "NCI‐H716", "result": "4 ± 0.5", "unit": "nM"},
      {"measurement": "IC50", "setting": "MKN‐1", "result": "743 ± 31.8", "unit": "nM"},
      {"measurement": "IC50", "setting": "RT112", "result": "91 ± 5.7", "unit": "nM"},
      {"measurement": "IC50", "setting": "SNU16", "result": "14.4 ± 4.8", "unit": "nM"},
      {"measurement": "IC50", "setting": "Ba/F3(+IL‐3); BaF3, 72 h", "result": "1710 ± 590", "unit": "nM"},
      {"measurement": "IC50", "setting": "Ba/F3‐FGFR1; BaF3, 72 h", "result": "8.1 ± 1.1", "unit": "nM"},
      {"measurement": "IC50", "setting": "Ba/F3‐FGFR1‐K656N; BaF3, 72 h", "result": "12 ± 2", "unit": "nM"},
      {"measurement": "IC50", "setting": "Ba/F3‐FGFR1‐V561M; BaF3, 72 h, read-out: IC50 (μΜ) Ba/F3‐FGFR1‐V561M", "result": "55 ± 3.7", "unit": "nM"},
      {"measurement": "IC50", "setting": "Ba/F3‐FGFR1‐K656E; BaF3, 72 h, read-out: IC50 (μΜ) Ba/F3‐FGFR1‐K656E", "result": "20.6 ± 0.8", "unit": "nM"},
      {"measurement": "IC50", "setting": "Ba/F3‐FGFR1‐V561F [3]; BaF3, 72 h, read-out: IC50 (μΜ) Ba/F3‐FGFR1‐V561F", "result": "12 ± 0.5", "unit": "nM"}
    ]}
  ]
}
